This note sets out measurements from US20250026741A1, “INHIBITORS OF THE ONCOGENIC SHP2 PHOSPHATASE AND USES THEREOF” (Sanford Burnham Prebys Medical Discovery Institute, priority 2021, published 2025).

Common to all, as to format: cell-based
In assay [1] the test system is Kasumi-1 acute myeloid leukemia (AML) cells. The experiment in a line: Cell viability assay (CellTiter-Glo), Kasumi-1. Conditions: Kasumi-1 cells, various concentrations, 3 d. An excerpt:
(§1) Inhibition of SHP2 has been reported to inhibit the growth of cancer cells including Kasumi-1 acute myeloid leukemia (AML) and KYSE-520 esophageal cancer cells. […] Cell viability is shown as a percentage of the vehicle (DMSO) control and represents the mean±SD. B) #02 dose-response curves in cell viability assays using Kasumi-1, KYSE-520, MOLM-13, and […] cells after 3 d in culture. The percentages compared to DMSO vehicle control were curve fitted using nonlinear regression (log[inhibitor] vs. normalized response, variable slope) and represent the mean±SD. C) Cell viability of […] and MDA-MB-468 triple-negative breast cancer (TNBC) cells in the presence of various concentrations of #02 or the SHP2 allosteric inhibitor SHP099 after 5 d in culture. Cell viability is shown as a percentage of DMSO vehicle control, representing mean±SD, and curve fitted as in B). D) Colony formation assay (11 d) of […] and MDA-MB-468 TNBC cells in the presence of various concentrations of #02 or the SHP2 allosteric inhibitor SHP099. E) Phospho-ERK1/2 (p-ERK1/2) immunoblot analysis from total cell lysates of MOLM-13 AML cells treated with #02 at the indicated concentrations, or with SHP2 allosteric inhibitor RMC-4550 (RMC, 1 μM) for 3 h or 24 h. The quantitation of p-ERK1/2 levels is shown as the percentage of the DMSO (vehicle) control and represents data from three independent experiments (mean±SD). F) Viability of AML patient-derived cells in the presence of 10 μM #02 or 10 μM SHP2 allosteric inhibitor RMC-4550 after 2 d, 4 d, or 6 d in culture. Cell viability is shown as a percentage of the DMSO vehicle control and represents the mean±SD (*p<0.05; **p<0.01; ****p<0.0001; unpaired test with Welch's correction) G) Viability of MOLM-13 cells and MOLM-13-Cas9-mCherry cells with SHP2 knockout (KO) in the presence of #01, #02, and allosteric inhibitor SHP099 at various concentrations (10-point dose-response). The percentages compared to the DMSO vehicle control were curve fitted using nonlinear regression (log[inhibitor] vs. normalized response, variable slope) and represent the mean±SD. SHP2 protein levels in regular MOLM-13 cells (WT), MOLM-13-Cas9-mCherry cells (Cas9), and MOLM-13-Cas9-mCherry cells with SHP2 KO (SHP2 KO) were evaluated by immunoblot analysis using SHP2 antibodies.
(§2) Viability of AML, esophageal carcinoma, and TF-1 cells was assessed using the ATP-depletion assay CellTiter-Glo® (Promega). Cells were harvested at 1×10^6/mL to 2×10^6 cells/mL with cell numbers determined by trypan blue using the Countess Cell counter (Thermo Scientific) and resuspended in culture media. […] Luminescence was read on a Tecan Spark® Multimode Microplate Reader and data analyzed using Graph Pad Prism software.
Background: ATP-based viability assays read luminescence as a measure of living cells.

Assay [2] concerns KYSE-520 esophageal cancer cells. As to the kind of experiment: Cell viability assay (CellTiter-Glo), KYSE-520. Conditions: KYSE-520 cells, various concentrations, 3 d.
Description: as §1, §2

Assay [3] has as its system MOLM-13-Cas9-mCherry cells with SHP2 KO. The experiment in a line: SHP2 CRISPR-Cas9 knockout inhibitor selectivity assay (cell viability). The following applies: MOLM-13-Cas9-mCherry SHP2 KO cells, 72 h. How it is done:
Finally, we evaluated the selectivity of our top two compounds, #01 and #02, on MOLM-13 AML cells in which SHP2 was depleted using CRISPR-Cas9 knock-out (KO). High-efficiency Cas9-editing MOLM-13 cells were generated by transducingMOLM-13 cells with a Cas9 lentiviral construct. Stable clones were tested for editing efficiency by performing TIDE analysis (45), and these MOLM13-Cas9 cells were transduced with a lentiviral construct containing an AAVS1 single guide RNA (sgRNA) and an mCherry reporter for bulk-sorting of cells with successful AAVS1 editing. SHP2 KO was achieved by transducing MOLM-13-Cas9-mCherry cells with a lentivirus containing SHP2 dual sgRNAs, resulting in ˜80% reduction of SHP2 protein levels (FIG. 3G). #01, #02, and the SHP2 allosteric inhibitor SHP099 were tested in parallel on regular MOLM-13 cells (expressing WT SHP2) and MOLM-13-Cas9-mCherry cells with SHP2 KO. Cells were treated with inhibitors at various concentrations (ranging from […] to 58 nM) or vehicle control (DMSO) for 72 h, before cell viability was assessed.
High-efficiency Cas9-editing MOLM-13 cells were generated by transducing MOLM-13 cells with the pLenti-Cas9-blasticidin construct (Addgene plasmid #52962) and selecting single stable clones using flow-sorting. Clones were then tested for editing efficiency by performing TIDE analysis (45). These MOLM13-Cas9 cells were then transduced with a lentiviral construct containing an AAVS sgRNA and an mCherry reporter out of frame and downstream of an AAVS sgRNA targeting site. […]
For SHP2 KO, dual sgRNAs targeting SHP2 were cloned in the pLentiGuide puro vector (Addgene plasmid #52963) using a published protocol (50). […] SHP2 KO was evaluated by immunoblotting. […] For SHP2 KO, MOLM-13-Cas9-mCherry cells were seeded in nontreated 6-well-plates ([…] in 2.5 mL), with cell numbers determined by trypan blue using the Countess Cell counter (Thermo Scientific). […] Cell viability was assessed using the ATP-depletion assay CellTiter-Glo® (Promega) as described above, and data were analyzed using GraphPad Prism software.

In the case of `Nc1ccc(NC(=O)c2cc(-c3ccc(/C=C4\Sc5ccccc5C4=O)o3)ccc2O)cc1` [#01, (Z)—N-(4-Aminophenyl)-2-hydroxy-5-(5-((3-oxobenzo[b]thiophen-2(3H)-ylidene)methyl)furan-2-yl)benzamide], the “effect on cancer cell growth” value in assay [1] and in assay [2] was “dose-dependently inhibited cancer cell growth” each time. In assay [3], the “effect on viability of SHP2 KO cells” value is “either no effect, or a greatly reduced effect”.

Turning to `O=C(Nc1ccccc1)c1cc(-c2ccc(/C=C3\Sc4ccccc4C3=O)o2)ccc1O` [#02, (Z)-2-hydroxy-5-(5-((3-oxobenzo[b]thiophen-2(3H)-ylidene)methyl)furan-2-yl)-N-phenylbenzamide], the “effect on cancer cell growth” value in assay [1] and in assay [2] was “dose-dependently inhibited cancer cell growth” throughout. Further, the “effect on viability of SHP2 KO cells” value in assay [3] is “either no effect, or a greatly reduced effect”.

For `N#Cc1cc(-c2ccc(/C=C3\Sc4ccccc4C3=O)o2)ccc1O` [#05, (Z)-2-Hydroxy-5-(5-((3-oxobenzo[b]thiophen-2(3H)-ylidene)methyl)furan-2-yl)benzonitrile], the “effect on cancer cell growth” value in assay [1] and in assay [2] was “dose-dependently inhibited cancer cell growth” in each case.
